Assays:
[1] = test system: barnyardgrass; test: Test B flooded paddy test; assay type: in vivo, Echinochloa crus-galli; details: 1000 g ai/ha, scale 0 to 100 (0 no effect, 100 complete control)
Outline: (§1)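 Visual ratings, 0 (no effect) to 100 (complete control), made versus controls after 13–15 d greenhouse. Paddy plants treated at 2-leaf stage; postemergence plants at 1- to 4-leaf stage, 2–18 cm tall.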

[2] = test system: lambsquarters; test: Test B pre-/postemergence herbicide test; assay type: in vivo, Chenopodium album
Outline: (§2)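 Plants compared with untreated controls 13–15 days post-treatment and given a visual 0–100 injury score. Applications: preemergence to seeds; postemergence at 1- to 4-leaf (2–18 cm); paddy species flooded, 2-leaf stage. Vehicle non-phytotoxic, surfactant included.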

[3] = test system: small flower umbrella sedge; test: Test B flooded paddy test; assay type: in vivo, Cyperus difformis; details: 1000 g ai/ha, scale 0 to 100 (0 no effect, 100 complete control)
Outline: as §1

[4] = test system: corn; test: Test B pre-/postemergence herbicide test; assay type: in vivo, Zea mays
Outline: as §2

[5] = test system: cocklebur; test: Test B pre-/postemergence herbicide test; assay type: in vivo, Xanthium strumarium
Outline: (§3)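 Visual rating, 0 (no effect) to 100 (complete control), versus untreated controls after 13–15 d in greenhouse. Pre- and postemergence applications (postemergence plants 2–18 cm, 1–4 leaves); flooded paddy arm at 2-leaf stage. Compounds in non-phytotoxic solvent plus surfactant.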

[6] = test system: large crabgrass; test: Test A pre-/postemergence herbicide test; assay type: in vivo, Digitaria sanguinalis
Outline: (§4)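 Visual injury rating on a 0–100 scale (0 no effect, 100 complete control) versus untreated controls, about ten days after treatment in greenhouse. Pre: directed soil spray onto seeded sandy loam. Post: spray to runoff on plants 2–10 cm tall at one- to two-leaf stage.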

[7] = test system: morningglory; test: Test B pre-/postemergence herbicide test; assay type: in vivo, Ipomoea coccinea
Outline: as §3

[8] = test system: giant foxtail; test: Test A pre-/postemergence herbicide test; assay type: in vivo, Setaria faberi
Outline: as §4

[9] = test system: morningglory; test: Test A pre-/postemergence herbicide test; assay type: in vivo, Ipomoea spp.
Outline: as §4

[10] = test system: blackgrass; test: Test B postemergence herbicide test; assay type: in vivo, Alopecurus myosuroides
Outline: as §1

[11] = test system: giant foxtail; test: Test B pre-/postemergence herbicide test; assay type: in vivo, Setaria faberi
Outline: as §2

[12] = test system: ducksalad; test: Test B flooded paddy test; assay type: in vivo, Heteranthera limosa; details: 1000 g ai/ha, scale 0 to 100 (0 no effect, 100 complete control)
Outline: as §1

[13] = test system: wheat; test: Test B postemergence herbicide test; assay type: in vivo, Triticum aestivum; design: key to Wheat plant response rating: 0 = no effect, 100 = complete control
Outline: as §1

[14] = test system: barnyardgrass; test: Test A pre-/postemergence herbicide test; assay type: in vivo, Echinochloa crus-galli
Outline: as §4

[15] = test system: rice; test: Test B flooded paddy test; assay type: in vivo, Oryza sativa; details: 1000 g ai/ha, scale 0 to 100 (0 no effect, 100 complete control)
Outline: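 Formulated test chemicals went onto postemergence plants measuring 2 to 18 cm, at one to four leaves. For the paddy assay, species had reached two leaves. Scoring took place 13–15 days later by eye, relative to untreated plants, using 0 for no effect up to 100 for full control.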

[16] = test system: velvetleaf; test: Test B pre-/postemergence herbicide test; assay type: in vivo, Abutilon theophrasti
Outline: as §2

[17] = test system: large crabgrass; test: Test B pre-/postemergence herbicide test; assay type: in vivo, Digitaria sanguinalis
Outline: as §2

[18] = test system: barnyardgrass; test: Test B pre-/postemergence herbicide test; assay type: in vivo, Echinochloa crus-galli
Outline: as §3

[19] = test system: velvetleaf; test: Test A pre-/postemergence herbicide test; assay type: in vivo, Abutilon theophrasti
Outline: as §4

[20] = test system: rice; test: Test B pre-/postemergence herbicide test; assay type: in vivo, Oryza sativa; details: preemergence
Outline: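 Greenhouse pot assay with simultaneous preemergence (treated seed) and postemergence (2–18 cm seedlings) applications of surfactant-containing, non-phytotoxic solvent formulations. Response scored visually 13–15 days later on a 0–100 scale, 100 meaning complete control.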

[21] = test system: Surinam grass; test: Test B pre-/postemergence herbicide test; assay type: in vivo, Urochloa decumbens
Outline: as §2

[22] = test system: redroot pigweed; test: Test A pre-/postemergence herbicide test; assay type: in vivo, Amaranthus retroflexus
Outline: as §4

[23] = test system: wild oat; test: Test B postemergence herbicide test; assay type: in vivo, Avena fatua
Outline: as §1

[24] = test system: pigweed; test: Test B pre-/postemergence herbicide test; assay type: in vivo, Amaranthus retroflexus
Outline: as §2

[25] = 125 g ai/ha; 0 is no effect, 100 is complete control; preemergence
[26] = 125 g ai/ha; visual rating, scale 0 (no effect) to 100 (complete control); postemergence
[27] = 500 g ai/ha; visual rating, 0 = no effect, 100 = complete control; preemergence
[28] = postemergence, 500 g ai/ha; scale 0 to 100, 0 is no effect, 100 is complete control
[29] = Postemergence, 500 g ai/ha, 0 to 100 scale, 0 no effect, 100 complete control
[30] = Postemergence, 2000 g ai/ha, 0 to 100 scale, 0 no effect, 100 complete control
[31] = Preemergence, 2000 g ai/ha, visual rating, 0 to 100 scale (0 no effect, 100 complete control)
[32] = preemergence, 500 g ai/ha, visual injury, 0 to 100 scale (0 no effect, 100 complete control)
[33] = 500 g ai/ha; visual rating 0-100, 0 no effect, 100 complete control; preemergence
[34] = Postemergence, 500 g ai/ha; visual rating after 13 to 15 days, scale 0 (no effect) to 100 (complete control)
[35] = postemergence, 125 g ai/ha; visual rating, scale 0 (no effect) to 100 (complete control)
[36] = preemergence, 125 g ai/ha; 0 to 100 scale, 0 is no effect, 100 is complete control
[37] = Preemergence, 500 g ai/ha, visual rating, 0 to 100 scale (0 no effect, 100 complete control)

C#CCOC(=O)c1cccc(NC(=O)c2cc(C(C)(C)C)nn2C)n1 [Compound 317]
Barnyardgrass plant response rating [1]: 0
Plant response rating (0 to 100 scale), Lambsquarters [2, 25]: 0
Lambsquarters plant response rating [2, 26]: 0
Plant response rating, Lambsquarters [2, 27]: 0
Lambsquarters plant response rating [2, 28]: 50
Sedge, Umbrella plant response rating [3]: 0
Plant response rating (0 to 100 scale), Corn [4, 25]: 0
Corn plant response rating [4, 26]: 0
Plant response rating, Corn [4, 27]: 0
Corn plant response rating [4, 28]: 0
Plant response rating (0 to 100 scale), Cocklebur [5, 25]: 0
Cocklebur plant response rating [5, 26]: 0
Plant response rating, Cocklebur [5, 27]: 0
Cocklebur plant response rating [5, 28]: 0
Crabgrass, Large plant response rating [6, 29]: 10
Plant response rating, Crabgrass, Large [6, 30]: 10
Crabgrass, Large plant response rating [6, 31]: 10
Crabgrass, Large plant response rating [6, 32]: 0
Plant response rating (0 to 100 scale), Morningglory [7, 25]: 0
Morningglory plant response rating [7, 26]: 0
Plant response rating, Morningglory [7, 27]: 0
Morningglory plant response rating [7, 28]: 0
Foxtail, Giant plant response rating [8, 29]: 0
Plant response rating, Foxtail, Giant [8, 30]: 0
Foxtail, Giant plant response rating [8, 31]: 0
Foxtail, Giant plant response rating [8, 32]: 0
Morningglory plant response rating [9, 29]: 0
Plant response rating, Morningglory [9, 30]: 0
Morningglory plant response rating [9, 31]: 0
Morningglory plant response rating [9, 32]: 0
Blackgrass plant response rating [10, 26]: 0
Blackgrass plant response rating [10, 28]: 0
Plant response rating (0 to 100 scale), Foxtail, Giant [11, 25]: 0
Foxtail, Giant plant response rating [11, 26]: 0
Plant response rating, Foxtail, Giant [11, 27]: 0
Foxtail, Giant plant response rating [11, 28]: 0
Ducksalad plant response rating [12]: 0
Wheat plant response rating [13, 26]: 0
Wheat plant response rating [13, 28]: 0
Barnyardgrass plant response rating [14, 29]: 0
Plant response rating, Barnyardgrass [14, 30]: 0
Barnyardgrass plant response rating [14, 31]: 0
Barnyardgrass plant response rating [14, 32]: 0
Rice plant response rating [15]: 0
Plant response rating (0 to 100 scale), Velvetleaf [16, 25]: 0
Velvetleaf plant response rating [16, 26]: 0
Plant response rating, Velvetleaf [16, 27]: 0
Velvetleaf plant response rating [16, 28]: 0
Plant response rating (0 to 100 scale), Crabgrass, Large [17, 25]: 0
Crabgrass, Large plant response rating [17, 26]: 0
Plant response rating, Crabgrass, Large [17, 27]: 0
Crabgrass, Large plant response rating [17, 28]: 0
Plant response rating (0 to 100 scale), Barnyardgrass [18, 25]: 0
Barnyardgrass plant response rating [18, 26]: 0
Plant response rating, Barnyardgrass [18, 27]: 0
Barnyardgrass plant response rating [18, 28]: 0
Velvetleaf plant response rating [19, 29]: 0
Plant response rating, Velvetleaf [19, 30]: 0
Velvetleaf plant response rating [19, 31]: 30
Velvetleaf plant response rating [19, 32]: 0
Plant response rating (0 to 100 scale), Rice ([20]; 125 g ai/ha, 0 is no effect, 100 is complete control): 0
Plant response rating, Rice ([20]; 500 g ai/ha, visual rating, 0 = no effect, 100 = complete control): 0
Plant response rating (0 to 100 scale), Surinam Grass [21, 25]: 0
Surinam Grass plant response rating [21, 26]: 0
Plant response rating, Surinam Grass [21, 27]: 0
Surinam Grass plant response rating [21, 28]: 0
Pigweed plant response rating [22, 29]: 0
Plant response rating, Pigweed [22, 30]: 10
Pigweed plant response rating [22, 31]: 30
Pigweed plant response rating [22, 32]: 20
Oat, Wild plant response rating [23, 26]: 0
Oat, Wild plant response rating [23, 28]: 0
Plant response rating (0 to 100 scale), Pigweed [24, 25]: 0
Pigweed plant response rating [24, 26]: 0
Plant response rating, Pigweed [24, 27]: 0
Pigweed plant response rating [24, 28]: 0

CCOC(=O)c1cccc(NC(=O)c2cc(C(C)(C)C)nn2CC)c1OC [Compound 97]
Barnyardgrass plant response rating ([1]; visual rating, 13 to 15 days): 0
Plant response rating, Lambsquarters [2, 33]: 0
Plant response rating, Lambsquarters [2, 34]: 70
Lambsquarters plant response rating [2, 35]: 50
Plant response rating, Lambsquarters [2, 36]: 0
Sedge, Umbrella plant response rating ([3]; visual rating, 13 to 15 days): 70
Plant response rating, Corn [4, 33]: 0
Plant response rating, Corn [4, 34]: 0
Corn plant response rating [4, 35]: 0
Plant response rating, Corn [4, 36]: 0
Plant response rating, Cocklebur [5, 33]: 0
Plant response rating, Cocklebur [5, 34]: 70
Cocklebur plant response rating [5, 35]: 0
Plant response rating, Cocklebur [5, 36]: 0
Crabgrass, Large plant response rating [6, 29]: 10
Plant response rating, Crabgrass, Large [6, 30]: 10
Crabgrass, Large plant response rating [6, 37]: 0
Crabgrass, Large plant response rating [6, 31]: 0
Plant response rating, Morningglory [7, 33]: 0
Plant response rating, Morningglory [7, 34]: 0
Morningglory plant response rating [7, 35]: 0
Plant response rating, Morningglory [7, 36]: 0
Foxtail, Giant plant response rating [8, 29]: 5
Plant response rating, Foxtail, Giant [8, 30]: 10
Foxtail, Giant plant response rating [8, 37]: 0
Foxtail, Giant plant response rating [8, 31]: 0
Morningglory plant response rating [9, 29]: 0
Plant response rating, Morningglory [9, 30]: 0
Morningglory plant response rating [9, 37]: 0
Morningglory plant response rating [9, 31]: 0
Plant response rating, Blackgrass [10, 34]: 0
Blackgrass plant response rating [10, 35]: 0
Plant response rating, Foxtail, Giant [11, 33]: 0
Plant response rating, Foxtail, Giant [11, 34]: 0
Foxtail, Giant plant response rating [11, 35]: 0
Plant response rating, Foxtail, Giant [11, 36]: 0
Ducksalad plant response rating ([12]; visual rating, 13 to 15 days): 50
Plant response rating, Wheat [13, 34]: 0
Wheat plant response rating [13, 35]: 0
Barnyardgrass plant response rating [14, 29]: 5
Plant response rating, Barnyardgrass [14, 30]: 10
Barnyardgrass plant response rating [14, 37]: 0
Barnyardgrass plant response rating [14, 31]: 0
Rice plant response rating ([15]; visual rating, 13 to 15 days): 0
Plant response rating, Velvetleaf [16, 33]: 0
Plant response rating, Velvetleaf [16, 34]: 60
Velvetleaf plant response rating [16, 35]: 0
Plant response rating, Velvetleaf [16, 36]: 0
Plant response rating, Crabgrass, Large [17, 33]: 0
Plant response rating, Crabgrass, Large [17, 34]: 0
Crabgrass, Large plant response rating [17, 35]: 0
Plant response rating, Crabgrass, Large [17, 36]: 0
Plant response rating, Barnyardgrass [18, 33]: 0
Plant response rating, Barnyardgrass [18, 34]: 0
Barnyardgrass plant response rating [18, 35]: 0
Plant response rating, Barnyardgrass [18, 36]: 0
Velvetleaf plant response rating [19, 29]: 5
Plant response rating, Velvetleaf [19, 30]: 10
Velvetleaf plant response rating [19, 37]: 0
Velvetleaf plant response rating [19, 31]: 0
Plant response rating, Rice ([20]; 500 g ai/ha, visual rating 0-100, 0 no effect, 100 complete control): 0
Plant response rating, Rice ([20]; 125 g ai/ha, 0 to 100 scale, 0 is no effect, 100 is complete control): 0
Plant response rating, Surinam Grass [21, 33]: 0
Plant response rating, Surinam Grass [21, 34]: 0
Surinam Grass plant response rating [21, 35]: 0
Plant response rating, Surinam Grass [21, 36]: 0
Pigweed plant response rating [22, 29]: 0
Plant response rating, Pigweed [22, 30]: 25
Pigweed plant response rating [22, 37]: 0
Pigweed plant response rating [22, 31]: 0
Plant response rating, Oat, Wild [23, 34]: 0
Oat, Wild plant response rating [23, 35]: 0
Plant response rating, Pigweed [24, 33]: 0
Plant response rating, Pigweed [24, 34]: 0
Pigweed plant response rating [24, 35]: 0
Plant response rating, Pigweed [24, 36]: 0
